{"source": "paper PMC7681098", "about": "(Theranostics, 2021)", "key": {"FLT3 [1]": {"biological_target": "T1, FLT3 (Homo sapiens, UniProt P36888)", "T1 construct": "purchased Reaction Biology Corporation (PA, USA)", "assay": "Kinase inhibition assay (Reaction Biology)", "assay_type": "biochemical", "T1 sequence (P36888 27-993)": "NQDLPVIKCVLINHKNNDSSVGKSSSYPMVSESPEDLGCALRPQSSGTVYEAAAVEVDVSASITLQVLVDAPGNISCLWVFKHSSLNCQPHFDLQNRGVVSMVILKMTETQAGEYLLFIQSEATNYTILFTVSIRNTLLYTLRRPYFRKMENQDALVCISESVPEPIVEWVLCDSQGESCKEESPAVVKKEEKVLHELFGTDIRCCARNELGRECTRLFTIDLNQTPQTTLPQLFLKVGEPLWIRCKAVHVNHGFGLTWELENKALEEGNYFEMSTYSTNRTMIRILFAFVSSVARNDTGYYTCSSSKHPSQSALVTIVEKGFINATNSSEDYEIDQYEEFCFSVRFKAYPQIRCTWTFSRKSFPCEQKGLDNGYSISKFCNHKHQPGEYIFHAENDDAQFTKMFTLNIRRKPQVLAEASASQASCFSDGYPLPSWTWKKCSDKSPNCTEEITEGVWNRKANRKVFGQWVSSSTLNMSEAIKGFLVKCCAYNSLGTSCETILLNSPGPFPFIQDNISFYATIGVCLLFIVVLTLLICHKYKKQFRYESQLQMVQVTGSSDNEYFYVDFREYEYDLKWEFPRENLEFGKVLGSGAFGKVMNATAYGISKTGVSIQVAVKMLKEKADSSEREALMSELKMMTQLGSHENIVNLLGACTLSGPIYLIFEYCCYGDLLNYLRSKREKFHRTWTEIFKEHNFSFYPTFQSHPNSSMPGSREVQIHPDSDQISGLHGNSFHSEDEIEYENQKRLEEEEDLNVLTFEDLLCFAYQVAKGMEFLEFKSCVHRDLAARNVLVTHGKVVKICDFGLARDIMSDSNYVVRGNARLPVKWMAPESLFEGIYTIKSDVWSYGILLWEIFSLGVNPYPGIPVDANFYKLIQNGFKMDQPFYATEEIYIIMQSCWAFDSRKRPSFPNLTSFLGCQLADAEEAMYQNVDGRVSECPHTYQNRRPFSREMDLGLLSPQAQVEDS"}, "c-Kit": {"biological_target": "T2, c-Kit (Homo sapiens, UniProt P10721)", "T2 construct": "purchased Reaction Biology Corporation (PA, USA)", "T2 sequence (P10721 26-976)": "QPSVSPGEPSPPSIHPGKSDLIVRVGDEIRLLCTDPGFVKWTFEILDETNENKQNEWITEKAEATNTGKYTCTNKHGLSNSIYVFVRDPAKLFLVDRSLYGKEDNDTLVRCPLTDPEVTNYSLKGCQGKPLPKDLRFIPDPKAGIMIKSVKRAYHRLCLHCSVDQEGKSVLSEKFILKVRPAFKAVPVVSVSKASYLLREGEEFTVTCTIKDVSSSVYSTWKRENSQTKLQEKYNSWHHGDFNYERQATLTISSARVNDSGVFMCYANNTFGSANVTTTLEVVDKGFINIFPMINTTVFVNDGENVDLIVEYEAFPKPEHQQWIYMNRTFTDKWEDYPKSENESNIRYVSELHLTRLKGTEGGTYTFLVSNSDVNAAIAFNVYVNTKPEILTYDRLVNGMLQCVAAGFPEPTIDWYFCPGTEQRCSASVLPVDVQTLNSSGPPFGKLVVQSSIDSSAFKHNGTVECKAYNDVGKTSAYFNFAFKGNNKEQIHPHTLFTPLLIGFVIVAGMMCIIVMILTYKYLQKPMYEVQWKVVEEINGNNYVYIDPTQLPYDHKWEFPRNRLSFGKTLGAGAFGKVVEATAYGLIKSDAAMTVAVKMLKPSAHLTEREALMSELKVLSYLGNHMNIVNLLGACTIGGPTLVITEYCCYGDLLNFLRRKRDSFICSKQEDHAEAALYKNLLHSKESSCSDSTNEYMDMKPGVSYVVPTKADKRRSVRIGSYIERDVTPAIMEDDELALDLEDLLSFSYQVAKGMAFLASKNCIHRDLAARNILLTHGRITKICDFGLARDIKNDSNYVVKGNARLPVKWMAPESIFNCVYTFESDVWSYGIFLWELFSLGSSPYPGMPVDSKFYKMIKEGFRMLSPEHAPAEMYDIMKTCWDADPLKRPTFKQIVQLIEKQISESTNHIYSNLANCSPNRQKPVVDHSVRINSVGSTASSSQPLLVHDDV", "assay": "Kinase inhibition assay (Reaction Biology)", "assay_type": "biochemical"}, "PK study in mice": {"assay": "PK study in mice", "assay_type": "in vivo, BALB/c mice", "settings": "for MRT last: read-out: MRT(0-t); for MRT inf: read-out: MRT(0-∞); for concentration at 12 h: read-out: plasma concentration 12 h after administration; for half-life: read-out: apparent plasma half-life (t1/2z) (converted)", "description": "After dosing, blood samples were collected at indicated time points (15 min, 30 min, 45 min, 60 min, 90 min, 2 h, 4 h, 6 h, 8 h, 12 h, 24 h). Blood samples from each group were collected at each time point and the supernatant was collected and used for HPLC/LC-MAS analysis.\nThen, plasma levels of LT-171-861 were measured at each indicated time point. […] This inhibition efficacy lasted for 24 h, in accordance with the results of the PK experiment."}, "JAK2": {"biological_target": "T3, JAK2 (Homo sapiens, UniProt O60674)", "T3 construct": "purchased Reaction Biology Corporation (PA, USA)", "assay": "Kinase inhibition assay (Reaction Biology)", "assay_type": "biochemical"}, "FGFR1": {"biological_target": "T4, FGFR1 (Homo sapiens, UniProt P11362)", "T4 construct": "purchased Reaction Biology Corporation (PA, USA)", "T4 sequence (P11362 22-822)": "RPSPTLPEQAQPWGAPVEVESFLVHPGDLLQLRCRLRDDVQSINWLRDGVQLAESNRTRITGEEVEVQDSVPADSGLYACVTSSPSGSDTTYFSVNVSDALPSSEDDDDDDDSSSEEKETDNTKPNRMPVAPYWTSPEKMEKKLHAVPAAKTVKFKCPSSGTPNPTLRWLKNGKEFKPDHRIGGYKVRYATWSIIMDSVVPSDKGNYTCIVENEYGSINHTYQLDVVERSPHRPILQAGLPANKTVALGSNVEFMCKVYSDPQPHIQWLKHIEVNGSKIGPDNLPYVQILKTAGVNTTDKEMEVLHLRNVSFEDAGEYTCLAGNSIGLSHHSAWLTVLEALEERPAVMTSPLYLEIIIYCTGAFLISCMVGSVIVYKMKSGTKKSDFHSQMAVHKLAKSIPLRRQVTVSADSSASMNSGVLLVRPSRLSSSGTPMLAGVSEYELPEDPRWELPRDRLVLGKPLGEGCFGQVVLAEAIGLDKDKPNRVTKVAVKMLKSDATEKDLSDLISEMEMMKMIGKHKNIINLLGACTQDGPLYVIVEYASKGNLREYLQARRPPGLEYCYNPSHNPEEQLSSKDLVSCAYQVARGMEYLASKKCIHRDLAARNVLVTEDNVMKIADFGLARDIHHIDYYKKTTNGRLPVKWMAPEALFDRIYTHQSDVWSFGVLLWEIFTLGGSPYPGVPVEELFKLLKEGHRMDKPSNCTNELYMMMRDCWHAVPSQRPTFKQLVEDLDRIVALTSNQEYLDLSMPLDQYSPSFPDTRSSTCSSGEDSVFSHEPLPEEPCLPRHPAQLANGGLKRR", "assay": "Kinase inhibition assay (Reaction Biology)", "assay_type": "biochemical"}, "MV4-11 cells": {"system": "MV4-11 cells", "assay": "Bone marrow engrafted model, survival", "assay_type": "in vivo, NOD-SCID mice", "settings": "MV4-11 bone marrow engraftment; LT-171-861 10 mg/kg every other day, sorafenib orally every day", "description": "Six-week-old female NOD-SCID mice were treated with sub-lethal dose radiation (1.8 Gy) before intravenous injection of MV4-11 cells (5×10^6) or MOLM13 cells (5×10^6).\n(§1) Data were shown as mean±SD. […] Data were shown as mean±SD. (C) An engrafted tumor model was used to evaluate in vivo antitumor activity. The NOD/SCID mice were intravenously inoculated with MV4-11 cells. […] Log-rank testing was used to compare survival curves among treatment groups. […] (D) Apoptotic assays in engraft model were evaluated by TUNEL assay and cell proliferative activity was measured by Ki67 assay. Images were acquired at ×40 magnification. (E) BALB/c nude mice were subcutaneously inoculated with MV4-11 cells (5×10^6) and bodyweight of each mouse was recorded every other day. (F) Representative photo of tumors from BALB/c nude mice which were inoculated with MV4-11 cells. (G) BALB/c nude mice were subcutaneously inoculated with BaF3 cells bearing FLT3-ITD-N676D (n=6) and FLT3-ITD-F691L (n=6) respectively. […] (H) BALB/c mice were intravenously inoculated with cells used in (G). […] Log-rank testing was used to compare survival curves among treatment groups. […] (I) Representative photos of spleens dissected from mice in (H) inoculated with BaF3 cells bearing FLT-3-ITD-F691L.\nMice that received vehicle treatment died within 30 days after intravenous injection of MV4-11 cells."}, "FLT3 (ITD)": {"biological_target": "FLT3 (ITD) (Homo sapiens, UniProt P36888, ITD)", "sequence (P36888 564-993, change not shown)": "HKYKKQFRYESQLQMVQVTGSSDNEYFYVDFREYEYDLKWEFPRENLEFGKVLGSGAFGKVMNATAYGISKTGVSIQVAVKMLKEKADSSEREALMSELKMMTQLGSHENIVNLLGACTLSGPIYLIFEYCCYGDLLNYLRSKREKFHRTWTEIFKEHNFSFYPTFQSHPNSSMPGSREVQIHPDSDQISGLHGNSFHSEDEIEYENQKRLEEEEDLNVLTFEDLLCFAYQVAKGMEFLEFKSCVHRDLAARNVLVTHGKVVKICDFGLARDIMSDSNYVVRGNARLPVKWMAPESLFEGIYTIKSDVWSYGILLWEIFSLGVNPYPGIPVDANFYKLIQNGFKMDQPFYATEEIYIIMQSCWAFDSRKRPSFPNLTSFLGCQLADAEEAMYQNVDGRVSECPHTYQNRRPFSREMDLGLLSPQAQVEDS", "assay": "biochemical"}, "FLT4/VEGFR3": {"biological_target": "T5, FLT4/VEGFR3 (Homo sapiens, UniProt P35916)", "T5 construct": "purchased Reaction Biology Corporation (PA, USA)", "T5 sequence (P35916 25-1363)": "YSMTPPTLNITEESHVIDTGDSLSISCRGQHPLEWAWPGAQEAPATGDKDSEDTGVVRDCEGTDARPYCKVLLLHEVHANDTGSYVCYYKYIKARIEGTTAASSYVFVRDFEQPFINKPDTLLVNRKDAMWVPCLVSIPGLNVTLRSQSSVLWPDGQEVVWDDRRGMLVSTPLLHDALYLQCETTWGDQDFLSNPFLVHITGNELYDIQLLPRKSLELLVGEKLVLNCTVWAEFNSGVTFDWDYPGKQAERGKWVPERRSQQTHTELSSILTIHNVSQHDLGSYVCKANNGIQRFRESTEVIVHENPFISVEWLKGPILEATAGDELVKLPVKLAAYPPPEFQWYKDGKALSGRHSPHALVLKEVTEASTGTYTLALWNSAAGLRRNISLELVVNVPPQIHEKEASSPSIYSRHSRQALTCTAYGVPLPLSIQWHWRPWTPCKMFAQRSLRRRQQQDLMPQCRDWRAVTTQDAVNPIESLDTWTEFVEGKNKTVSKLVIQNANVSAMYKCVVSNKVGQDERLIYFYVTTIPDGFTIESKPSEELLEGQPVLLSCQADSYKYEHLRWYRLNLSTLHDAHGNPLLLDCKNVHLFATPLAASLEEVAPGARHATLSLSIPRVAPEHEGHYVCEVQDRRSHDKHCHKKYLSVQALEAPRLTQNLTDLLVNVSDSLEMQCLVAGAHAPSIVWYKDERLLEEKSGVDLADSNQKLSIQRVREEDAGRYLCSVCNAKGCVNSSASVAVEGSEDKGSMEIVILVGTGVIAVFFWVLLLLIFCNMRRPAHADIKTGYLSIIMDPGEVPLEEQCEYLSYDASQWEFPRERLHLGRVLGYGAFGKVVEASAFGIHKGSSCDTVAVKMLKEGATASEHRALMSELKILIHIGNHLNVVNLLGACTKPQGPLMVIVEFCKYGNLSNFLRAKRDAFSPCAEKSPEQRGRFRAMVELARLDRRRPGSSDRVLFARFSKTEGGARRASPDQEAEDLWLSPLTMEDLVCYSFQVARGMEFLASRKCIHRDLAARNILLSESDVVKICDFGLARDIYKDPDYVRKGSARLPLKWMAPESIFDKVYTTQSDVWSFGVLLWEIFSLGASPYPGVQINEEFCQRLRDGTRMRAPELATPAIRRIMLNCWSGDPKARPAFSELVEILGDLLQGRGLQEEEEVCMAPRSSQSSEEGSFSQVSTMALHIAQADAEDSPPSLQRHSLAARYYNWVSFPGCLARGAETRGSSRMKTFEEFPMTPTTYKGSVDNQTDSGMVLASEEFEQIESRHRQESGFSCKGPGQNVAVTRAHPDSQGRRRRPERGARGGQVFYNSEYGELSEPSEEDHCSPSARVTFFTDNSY", "assay": "Kinase inhibition assay (Reaction Biology)", "assay_type": "biochemical"}, "JAK3": {"biological_target": "T6, JAK3 (Homo sapiens, UniProt P52333)", "T6 construct": "purchased Reaction Biology Corporation (PA, USA)", "assay": "Kinase inhibition assay (Reaction Biology)", "assay_type": "biochemical"}, "FLT3 [2]": {"biological_target": "FLT3 (Homo sapiens, UniProt P36888)", "assay": "Cellular thermal shift assay (CETSA / ITDRF CETSA) in MV4-11 cells", "assay_type": "binding", "description": "All studies were performed with the Super Streptavidin (SSA) biosensors (CA, USA). All binding experiments were performed according to the manufacturer's instructions. For the cellular thermal shift assay (CETSA), experiments were performed as described previously.\nA concentration range from 0.3 nM to 1000 nM was defined (Figure 1B). […] CETSA has been used to identify FLT3-LT-171-861 interactions in live cell settings. […] We first verified that the inhibitor could stabilize FLT3 against denaturation using Western blot. […] An obvious thermal shift of the melting curve was detected in the LT-171-861-treated sample (Figure 1C). […] Accordingly, we identified 53 °C as the optimal temperature for isothermal […] fingerprint (ITDRF) CETSA.\n(A) Chemical structure of LT-171-861. […] Data were then fitted to obtain KD value. […] Data were first normalized by setting the highest and lowest value in each set to 100% and 0% respectively. Data were obtained in the presence of the LT-171-861 (blue circle) as positive the control and DMSO (red square) as the negative control. All experiments were performed at three independent occasions and data are given as the mean ± SD. […] Cell viability was evaluated by MTT assay respectively. The IC50 values were calculated using nonlinear regression."}, "MOLM13": {"system": "MOLM13", "assay": "Cell proliferation MTT assay", "assay_type": "cell-based", "settings": "Homo sapiens, MOLM-13, 72 h, read-out: Human leukemia cell line IC50 MOLM13", "description": "(§2) The conditional medium (CM) was prepared from the supernatant of HS-5 cell culture for 5 days under normal culture conditions. At the indicated time point, cell viability was evaluated by MTT assay."}, "THP-1": {"system": "THP-1", "assay": "Cell proliferation MTT assay", "assay_type": "cell-based", "settings": "Homo sapiens, 72 h, wild-type FLT3, read-out: Human leukemia cell line IC50 THP-1", "description": "as §2"}, "U937": {"system": "U937", "assay": "Cell proliferation MTT assay", "assay_type": "cell-based", "settings": "Homo sapiens, U-937, 72 h, wild-type FLT3, read-out: Human leukemia cell line IC50 U937", "description": "as §2"}, "MV4-11": {"system": "MV4-11", "assay": "Cell proliferation MTT assay", "assay_type": "cell-based", "settings": "Homo sapiens, 72 h, read-out: Human leukemia cell line IC50 MV4-11", "description": "as §2"}, "[3]": {"system": "BaF3 cells transfected with FLT3-ITD-N676D and FLT3-ITD-F691L", "assay": "Subcutaneous xenograft with transfected BaF3 cells", "assay_type": "in vivo, BALB/c nude mice", "settings": "10 mg/kg every other day for 16 days", "description": "as §1\nCells were injected into the tail vein of BALB/c nude mice and allowed to engraft for 5 days. […] This schedule was repeated for 8 cycles."}, "[4]": {"settings": "female, BALB/c, mouse, plasma, 10 mg/kg, IV"}, "[5]": {"settings": "female, BALB/c, mouse, plasma, po, 10 mg/kg, IG"}}, "note": "Where two headings read alike, the source gives them in different places."}
{"smiles": "CN1CCN(Cc2ccc(NC(=O)c3n[nH]cc3Nc3ncnc4[nH]ccc34)cc2)CC1", "note": "[LT-171-861]", "values": [{"measurement": "IC50", "setting": "FLT3 [1]", "value": "< 0.001", "unit": "µM"}, {"measurement": "IC50", "setting": "FLT3 [1]; 10 μM ATP, 10-dose IC50 mode", "value": 0.000234, "unit": "µM"}, {"measurement": "IC50", "setting": "c-Kit", "value": "> 0.2", "unit": "µM"}, {"measurement": "IC50", "setting": "c-Kit; 10 μM ATP, 10-dose IC50 mode", "value": 1.81, "unit": "µM"}, {"measurement": "CLz", "setting": "PK study in mice; 10 mg/kg, IG", "value": 314.0953, "unit": "mL/min/kg"}, {"measurement": "Vz", "setting": "PK study in mice; 10 mg/kg, IG", "value": 100.1863, "unit": "L/kg"}, {"measurement": "AUC(0-inf)", "setting": "PK study in mice; [4]", "value": 3380, "unit": "ng·h/mL"}, {"measurement": "AUC(0-t)", "setting": "PK study in mice; [4]", "value": 3310, "unit": "ng·h/mL"}, {"measurement": "clearance", "setting": "PK study in mice; female, BALB/c, mouse, plasma, 10 mg/kg, IV, read-out: CLz (converted)", "value": 49.3, "unit": "mL/min/kg"}, {"measurement": "MRT last", "setting": "PK study in mice; [4]", "value": 1.86, "unit": "h"}, {"measurement": "MRT inf", "setting": "PK study in mice; [4]", "value": 2.1, "unit": "h"}, {"measurement": "Vd", "setting": "PK study in mice; female, BALB/c, mouse, plasma, 10 mg/kg, IV, read-out: Vz", "value": 8.61, "unit": "L/kg"}, {"measurement": "Cmax", "setting": "PK study in mice; female, BALB/c, mouse, plasma, 10 mg/kg, intravenous injection (IV)", "value": 2170, "unit": "ng/mL"}, {"measurement": "Cmax", "setting": "PK study in mice; female, BALB/c, mouse, plasma, 10 mg/kg, oral administration", "value": 200, "unit": "nM"}, {"measurement": "Cmax", "setting": "PK study in mice; female, BALB/c, mouse, plasma, 10 mg/kg, oral administration (IG)", "value": 88, "unit": "ng/mL"}, {"measurement": "concentration at 12 h", "setting": "PK study in mice; female, BALB/c, mouse, plasma, intravenous, 10 mg/kg, i.v", "value": 50.1, "unit": "nM"}, {"measurement": "half-life", "setting": "PK study in mice; female, BALB/c, mouse, plasma, iv, 10 mg/kg, intravenous (tail) injection (IV)", "value": 2.02, "unit": "h"}, {"measurement": "bioavailability", "setting": "PK study in mice; female, BALB/c, mouse, plasma, oral versus intravenous at 10 mg/kg", "value": "~15", "unit": "%"}, {"measurement": "concentration at 12 h", "setting": "PK study in mice; female, BALB/c, mouse, plasma, oral, 10 mg/kg, p.o", "value": 30, "unit": "nM"}, {"measurement": "AUC(0-inf)", "setting": "PK study in mice; [5]", "value": 531, "unit": "ng·h/mL"}, {"measurement": "AUC(0-t)", "setting": "PK study in mice; [5]", "value": 463, "unit": "ng·h/mL"}, {"measurement": "MRT last", "setting": "PK study in mice; [5]", "value": 4.28, "unit": "h"}, {"measurement": "MRT inf", "setting": "PK study in mice; [5]", "value": 5.95, "unit": "h"}, {"measurement": "Tmax", "setting": "PK study in mice; female, BALB/c, mouse, plasma, po, 10 mg/kg, oral administration (IG), read-out: Tmax (time to maximum plasma level)", "value": 1, "unit": "h"}, {"measurement": "half-life", "setting": "PK study in mice; female, BALB/c, mouse, plasma, po, 10 mg/kg, oral administration (IG)", "value": 3.68, "unit": "h"}, {"measurement": "IC50", "setting": "JAK2", "value": 0.0338, "unit": "µM"}, {"measurement": "IC50", "setting": "FGFR1", "value": 0.02, "unit": "µM"}, {"measurement": "survival versus vehicle", "setting": "MV4-11 cells", "value": "increased survival rates"}, {"measurement": "IC50", "setting": "FLT3 (ITD)", "value": "< 0.001", "unit": "µM"}, {"measurement": "IC50", "setting": "FLT3 (ITD); 10 μM ATP, 10-dose IC50 mode", "value": 0.000718, "unit": "µM"}, {"measurement": "IC50", "setting": "FLT4/VEGFR3", "value": 0.00124, "unit": "µM"}, {"measurement": "IC50", "setting": "JAK3", "value": 0.0326, "unit": "µM"}, {"measurement": "Kd", "setting": "FLT3 [2]; 1 h, 53 °C, read-out: fitted Kd value (ITDRF CETSA)", "value": 0.0785, "unit": "µM"}, {"measurement": "apparent aggregation temperature (Tagg) for FLT3", "setting": "FLT3 [2]; LT-171-861 10 µM 1 h, 49.11 °C without LT-171-861", "value": 52.91, "unit": "°C"}, {"measurement": "IC50", "setting": "MOLM13", "value": 0.0013, "unit": "µM"}, {"measurement": "IC50", "setting": "THP-1", "value": 0.505, "unit": "µM"}, {"measurement": "IC50", "setting": "U937", "value": 0.495, "unit": "µM"}, {"measurement": "IC50", "setting": "MV4-11", "value": 0.0018, "unit": "µM"}, {"measurement": "tumor growth", "setting": "[3]", "value": "inhibited tumor growth"}]}
